From ChEMBL document CHEMBL3885861, “Open TG-GATES”

Organism: Rattus norvegicus
Test: Open TG-GATES - Regimen: Daily Repeat
Format: toxicity, organism-based, Sprague-Dawley
Parameters: regimen Daily Repeat, gender Male, age 6 weeks
Settings: in vivo, po, 0 mg/kg, route gavage, dose level Control; for APTT / Bas / Eos / Fbg / Hb / Ht / Lym / MCH / MCHC / MCV / Mono / Neu / PT / Plat / RBC / Ret / WBC: tissue Blood; for KIDNEY_L / KIDNEY_R / KIDNEY_TOTAL: tissue Kidney; for LIVER: tissue Liver; for A/G / ALP / ALT / AST / BUN / CRE / Ca / Cl / DBIL / GLC / IP / K / LDH / Na / PL / RALB / TBIL / TC / TG / TP / gamma-GTP: tissue Plasma

CCN(CC)N=O [N-NITROSODIETHYLAMINE]
TERMINAL_BW (72 h, time 3 day): 240.5 g | APTT (72 h, time 3 day): 18.3 s | Bas (72 h, time 3 day): 0.8% | Eos (72 h, time 3 day): 1.2% | Fbg (72 h, time 3 day): 218.2 mg/dL | Hb (72 h, time 3 day): 13.8 g/dL | Ht (72 h, time 3 day): 39.7% | Lym (72 h, time 3 day): 77.6% | MCH (72 h, time 3 day): 21.7 pg | MCHC (72 h, time 3 day): 34.8% | MCV (72 h, time 3 day): 62.3 fL | Mono (72 h, time 3 day): 2.6% | Neu (72 h, time 3 day): 17.6% | PT (72 h, time 3 day): 12 s | Plat (72 h, time 3 day): 135 x10_4/uL | RBC (72 h, time 3 day): 638.8 x10_4/ul | Ret (72 h, time 3 day): 5.8% | WBC (72 h, time 3 day): 87.8 x10_2/uL | KIDNEY_L (72 h, time 3 day): 1 g | KIDNEY_R (72 h, time 3 day): 1 g | KIDNEY_TOTAL (72 h, time 3 day): 2 g | LIVER (72 h, time 3 day): 10.5 g | A/G (72 h, time 3 day): 1.6 | ALP (72 h, time 3 day): 962 IU/L | ALT (72 h, time 3 day): 35.8 IU/L | AST (72 h, time 3 day): 67 IU/L | BUN (72 h, time 3 day): 16.2 mg/dL | CRE (72 h, time 3 day): 0.4 mg/dL | Ca (72 h, time 3 day): 10.8 mg/dL | Cl (72 h, time 3 day): 102.2 meq/L | DBIL (72 h, time 3 day): 0.09 mg/dL | GLC (72 h, time 3 day): 200.6 mg/dL | IP (72 h, time 3 day): 8 mg/dL | K (72 h, time 3 day): 4 meq/L | LDH (72 h, time 3 day): 211.2 IU/L | Na (72 h, time 3 day): 140.2 meq/L | PL (72 h, time 3 day): 153 mg/dL | RALB (72 h, time 3 day): 3.4 g/dL | TBIL (72 h, time 3 day): 0.1 mg/dL | TC (72 h, time 3 day): 82.6 mg/dL | TG (72 h, time 3 day): 79.2 mg/dL | TP (72 h, time 3 day): 5.6 g/dL | gamma-GTP (72 h, time 3 day): 1 IU/L | TERMINAL_BW ([…], time 7 day): 275.8 g | TERMINAL_BW ([…], time 14 day): 325.9 g | TERMINAL_BW ([…], time 28 day): 396.4 g | APTT ([…], time 7 day): 20.6 s | Bas ([…], time 7 day): 0% | Eos ([…], time 7 day): 1% | Fbg ([…], time 7 day): 217.4 mg/dL | Hb ([…], time 7 day): 13.5 g/dL | Ht ([…], time 7 day): 38.7% | Lym ([…], time 7 day): 79.6% | MCH ([…], time 7 day): 21.3 pg | MCHC ([…], time 7 day): 34.9% | MCV ([…], time 7 day): 61 fL | Mono ([…], time 7 day): 2.4% | Neu ([…], time 7 day): 16% | PT ([…], time 7 day): 11.8 s | Plat ([…], time 7 day): 142.9 x10_4/uL | RBC ([…], time 7 day): 634 x10_4/ul | Ret ([…], time 7 day): 5.8% | WBC ([…], time 7 day): 109.2 x10_2/uL | APTT ([…], time 14 day): 21.7 s | Bas ([…], time 14 day): 1% | Eos ([…], time 14 day): 0.8% | Fbg ([…], time 14 day): 216.6 mg/dL | Hb ([…], time 14 day): 14.7 g/dL | Ht ([…], time 14 day): 41.9% | Lym ([…], time 14 day): 82% | MCH ([…], time 14 day): 21 pg | MCHC ([…], time 14 day): 35% | MCV ([…], time 14 day): 60.1 fL | Mono ([…], time 14 day): 1.8% | Neu ([…], time 14 day): 13.8% | PT ([…], time 14 day): 12 s | Plat ([…], time 14 day): 124.2 x10_4/uL | RBC ([…], time 14 day): 697 x10_4/ul | Ret ([…], time 14 day): 4.3% | WBC ([…], time 14 day): 94.2 x10_2/uL | APTT ([…], time 28 day): 21.9 s | Bas ([…], time 28 day): 0.8% | Eos ([…], time 28 day): 1.4% | Fbg ([…], time 28 day): 225 mg/dL | Hb ([…], time 28 day): 15.5 g/dL | Ht ([…], time 28 day): 42.3% | Lym ([…], time 28 day): 80.8% | MCH ([…], time 28 day): 20.4 pg | MCHC ([…], time 28 day): 36.6% | MCV ([…], time 28 day): 55.8 fL | Mono ([…], time 28 day): 2% | Neu ([…], time 28 day): 14.8% | PT ([…], time 28 day): 11.6 s | Plat ([…], time 28 day): 108.6 x10_4/uL | RBC ([…], time 28 day): 758.6 x10_4/ul | Ret ([…], time 28 day): 2.6% | WBC ([…], time 28 day): 81 x10_2/uL | KIDNEY_L ([…], time 7 day): 1.2 g | KIDNEY_R ([…], time 7 day): 1.1 g | KIDNEY_TOTAL ([…], time 7 day): 2.3 g | KIDNEY_L ([…], time 14 day): 1.3 g | KIDNEY_R ([…], time 14 day): 1.3 g | KIDNEY_TOTAL ([…], time 14 day): 2.6 g | KIDNEY_L ([…], time 28 day): 1.3 g | KIDNEY_R ([…], time 28 day): 1.3 g | KIDNEY_TOTAL ([…], time 28 day): 2.7 g | LIVER ([…], time 7 day): 12.4 g | LIVER ([…], time 14 day): 13.5 g | LIVER ([…], time 28 day): 14.9 g | A/G ([…], time 7 day): 1.5 | ALP ([…], time 7 day): 863.2 IU/L | ALT ([…], time 7 day): 32.2 IU/L | AST ([…], time 7 day): 66.2 IU/L | BUN ([…], time 7 day): 15 mg/dL | CRE ([…], time 7 day): 0.4 mg/dL | Ca ([…], time 7 day): 10.4 mg/dL | Cl ([…], time 7 day): 103.2 meq/L | DBIL ([…], time 7 day): 0.1 mg/dL | GLC ([…], time 7 day): 194.8 mg/dL | IP ([…], time 7 day): 8.5 mg/dL | K ([…], time 7 day): 4.1 meq/L | LDH ([…], time 7 day): 190 IU/L | Na ([…], time 7 day): 141 meq/L | PL ([…], time 7 day): 153 mg/dL | RALB ([…], time 7 day): 3.3 g/dL | TBIL ([…], time 7 day): 0.2 mg/dL | TC ([…], time 7 day): 83.2 mg/dL | TG ([…], time 7 day): 102.8 mg/dL | TP ([…], time 7 day): 5.5 g/dL | gamma-GTP ([…], time 7 day): 1 IU/L | A/G ([…], time 14 day): 1.5 | ALP ([…], time 14 day): 688.8 IU/L | ALT ([…], time 14 day): 31 IU/L | AST ([…], time 14 day): 64.2 IU/L | BUN ([…], time 14 day): 15 mg/dL | CRE ([…], time 14 day): 0.5 mg/dL | Ca ([…], time 14 day): 10.6 mg/dL | Cl ([…], time 14 day): 101.6 meq/L | DBIL ([…], time 14 day): 0.086 mg/dL | GLC ([…], time 14 day): 205 mg/dL | IP ([…], time 14 day): 8 mg/dL | K ([…], time 14 day): 4 meq/L | LDH ([…], time 14 day): 198.4 IU/L | Na ([…], time 14 day): 141.6 meq/L | PL ([…], time 14 day): 144.4 mg/dL | RALB ([…], time 14 day): 3.4 g/dL | TBIL ([…], time 14 day): 0.1 mg/dL | TC ([…], time 14 day): 72.8 mg/dL | TG ([…], time 14 day): 93.6 mg/dL | TP ([…], time 14 day): 5.8 g/dL | gamma-GTP ([…], time 14 day): 1 IU/L | A/G ([…], time 28 day): 1.3 | ALP ([…], time 28 day): 606.8 IU/L | ALT ([…], time 28 day): 33 IU/L | AST ([…], time 28 day): 63.6 IU/L | BUN ([…], time 28 day): 17.4 mg/dL | CRE ([…], time 28 day): 0.5 mg/dL | Ca ([…], time 28 day): 10.3 mg/dL | Cl ([…], time 28 day): 103 meq/L | DBIL ([…], time 28 day): 0.092 mg/dL | GLC ([…], time 28 day): 208.4 mg/dL
